The test system of series [1] is whole blood cells. The experiment in a line: Membrane potential ratio (MPR) test on blood cells of patients under drug treatment. The format is in vivo, human. The note with it: for MPR value: Example 6, patient with ADHD. How it is done:
The MPR™ test is used to diagnose BD and ADHD. Briefly, the MPR™ test involves measuring the membrane potential of the human cells in a test buffer and in a reference buffer and calculating the ratio of these membrane potentials.
Briefly, the membrane potentials of whole blood cells are measured using two different buffers in a plate reader. The mean MPR™ value is the ratio between the membrane potential of a patient's cells in the test buffer as the numerator and that in the reference buffer as the denominator determined by statistical analysis of multiple measurements, using the ANOVA and the multiple statistical regression analysis.
The membrane potential of a patient's cells may be ascertained by any conventional method, such as by examining the fluorescence intensity of a potential-sensitive lipophilic fluorescent dye. The membrane potential is directly proportional to the intensity of fluorescence according to the following equation: I=CV, wherein I is the fluorescence intensity of a lipophilic fluorescent dye, V is the voltage or membrane potential, and C is a constant that can vary depending on a number of factors such as, but not limited to, temperature, lamp intensity, number of cells, concentration of the fluorescent dye, incubation time, and lipid composition of cells used. The calibration and determination of the value for C can be a cumbersome and unreliable procedure. Thus, according to the present invention, by using the ratio of the fluorescence intensity (I1) of one sample of cells to the fluorescence intensity (I2) of another sample of cells, the constant (C) is canceled out. Such ratio-metric measurements are preferred over absolute measurements.
(§1) Certain patients from the outpatient private psychiatric practice were retested after widely varying intervals as shown in the following Examples. Participation was completely voluntary and only allowed after the signing of a consent form. For the purpose of maintaining the privacy of the subject the lab work was performed confidentially (called blinding of the tester). Each patient was assigned an identification (ID) number and only the clinician had access to the key which correlated ID numbers with patient names.

The test system of series [2] is human patient with BD or ADHD. The experiment in a line: Clinical response of outpatient psychiatric patients to medication (clinical vignettes). The series is classed as in vivo. The note with it: for Clinical stabilization of Bipolar I Disorder: Example 4, person, combination: aripiperazole, citalopram, oxcarbazepine and alprazolam. How it is done:
as §1

For series [3], the system named is human patient with ADHD. The series is described as follows: WHO screener for ADHD symptoms (patient self-report). The note with it: for WHO screener, score on the 6 screening items / WHO screener, score out of the total possible of 18: Example 5, combination: sertraline 50 mg per day and lamotrigine 200 mg per day. The series is classed as in vivo. How it is done: Certain patients from the outpatient private psychiatric practice were retested after widely varying intervals as shown in the following Examples. Participation was completely voluntary and only allowed after the signing of a consent form. For the purpose of maintaining the privacy of the subject the lab work was performed confidentially (called blinding of the tester). Each patient was assigned an identification (ID) number and only the clinician had access to the key which correlated ID numbers with patient names. Because these were and are patients presenting for treatment, the priority has been their treatment. They have manifested all the typical variability found in clinical practice, and the resulting data points obtained are those possible under these circumstances. The paired MPR™ results are presented along with clinical vignettes. The patients with repeated tests are shown in example 1 and their vignettes are elucidated here. This clinical data and its interpretation provide the basis for the claims of the invention.

For series [4], the system named is human patient. The series is described as follows: Side effects reported by patients on medication. The series is classed as in vivo. The note with it: for Side effects: Example 5, combination: sertraline 50 mg per day and lamotrigine 200 mg per day.
[5] abbreviates: Example 1, combination: selegiline transdermal 12 mg per 24 hours and mixed amphetamine salts 15 mg per day.
[6] abbreviates: Example 3, person with BD, combination: lithium, quetiapine and mirtazapine (B in FIG. 3).
Where [7] appears, read: Example 4, combination: escitalopram 10 mg per day, aripiperazole 2 mg per day, alprazolam 0.5 mg twice a day as needed, tapering from oxcarbazepine (A in FIG. 4).
Setting [8] is: Example 2, combination: dextroamphetamine sulfate 5 mg three times per day and extended release dexmethylphenidate 20 mg morning and afternoon (C in FIG. 2).
Setting [9] is: Example 5, combination: sertraline 50 mg per day and lamotrigine 200 mg per day (B in FIG. 5).

Where a name gives a salt, the structure may show the parent alone.

`COC(=O)C(c1ccccc1)C1CCCCN1` (stereo not drawn) [methylphenidate]: the MPR value entry in series [1] (10 mg (FIG. 6)) is “close to the BD side of the negative range”; in series [1] (dose reduced to 5 mg (FIG. 6)), “moved up close to the right value”. Moreover, the “Clinical effect on ADHD symptoms reported by subject” value in series [2] (Example 4, 10 mg twice per day, later 10 mg three times per day, added to BD medication) was “benefit”.
In the case of mixed amphetamine salts, the MPR value range entry in series [1] (Example 1, blood drawn third week after stopping mixed amphetamine salts (B in FIG. 1)) is on record as “ADHD range”; in series [1] (Example 1, person, taking only mixed amphetamine salts (A in FIG. 1)) it was “negative (normal) range”. Also, the “MPR test result range” value in series [1] (Example 2, 40 mg every morning, with lamotrigine for BD (B in FIG. 2)) is “negative range”. The “WHO screener, positive items of the six items” value is recorded as 1 in series [3] (setting [5]) and “two” in series [3] (Example 2, 40 mg every morning). In addition, the “WHO screener, positive items of the 6 items” value in series [3] (Example 1, taking only mixed amphetamine salts) is listed as 3; in series [3] (Example 1, two weeks after stopping mixed amphetamine salts), 4. The “Symptomatic control of ADHD” value in series [2] (Example 2, 40 mg every morning) was “good symptomatic control”.
For `CN1CCN2c3ncccc3Cc3ccccc3C2C1` (stereo not drawn) [mirtazapine], the MPR result range in series [1] (setting [6]) is “negative (normal) range”. Besides, the “Outcome of trial of adding the drug (depression)” value in series [2] (Example 1, added to mixed amphetamine salts) is “unsuccessful”.
For the compound `CN(C)CCC[C@@]1(c2ccc(F)cc2)OCc2cc(C#N)ccc21` [escitalopram], in series [1] (setting [7]), the MPR test range entry is given as “bipolar transition range”.
As to `C[C@H](N)Cc1ccccc1` [dextroamphetamine sulfate], the “MPR test result range” value in series [1] (setting [8]) is “ADHD transition range”.
`CN[C@H]1CC[C@@H](c2ccc(Cl)c(Cl)c2)c2ccccc21` [sertraline]: the MPR result range in series [1] (setting [9]) was “ADHD range”. Also, in series [1] (Example 5, initial evaluation, subject on sertraline 100 mg at bedtime (A in FIG. 5)), the MPR result range is given as “BD transition range”. Also, in series [3], the “WHO screener, score on the 6 screening items” value is on record as 0 and the “WHO screener, score out of the total possible of 18” value is on record as 1. In addition, the “Clinical effect on depression according to the subject” value in series [2] (Example 5, person, 100 mg at bedtime) is given as “no longer working”. The Side effects result in series [4] is listed as “without complaint of side effects”.
Take `Cc1nnc2n1-c1ccc(Cl)cc1C(c1ccccc1)=NC2` [alprazolam]: in series [1] (setting [7]), the MPR test range result is reported as “bipolar transition range”. For the same compound, the “Clinical stabilization of Bipolar I Disorder” value (“Clinical stabilization” for short) in series [2] is “not fully stabilized”.
For the compound `CC(NC(C)(C)C)C(=O)c1cccc(Cl)c1` (stereo not drawn) [bupropion], in series [2] (Example 5, earlier treatment, patient history), the “Clinical benefit by history” value is “had not offered a benefit”.
As for `Nc1nnc(-c2cccc(Cl)c2Cl)c(N)n1` [lamotrigine], the MPR result range in series [1] (setting [9]) is “ADHD range”. Further, in series [3], the “WHO screener, score on the 6 screening items” value was 0 and the “WHO screener, score out of the total possible of 18” value is recorded as 1. The Clinical benefit result in series [2] (Example 5, tapered up as per a starter pack, subject able to return to work) is recorded as “offered benefit quickly”. The Side effects result in series [4] is listed as “without complaint of side effects”.
Consider `C#CCN(C)[C@H](C)Cc1ccccc1` [selegiline transdermal, selegiline], for which the “WHO screener, positive items of the six items” value in series [3] (setting [5]) was 1.
Consider `OCCN1CCN(CCCN2c3ccccc3Sc3ccc(Cl)cc32)CC1` [perphenazine], for which the “Side effect leading to discontinuation” value in series [4] (Example 3, very low dosage for neurotic anxiety) is “blurred vision”.
For the compound `NC(=O)N1c2ccccc2CC(=O)c2ccccc21` [oxcarbazepine], the “Clinical stabilization” value in series [2] is “not fully stabilized”.
With `OCCOCCN1CCN(C2=Nc3ccccc3Sc3ccccc32)CC1` [quetiapine], the MPR result range in series [1] (setting [6]) was “negative (normal) range”. In addition, the MPR test range entry in series [1] (Example 4, after addition of lithium 600 mg per day and Seroquel 100 mg at bedtime (B in FIG. 4)) is “ADHD range”. For the same compound, the Mood stabilization entry in series [2] (Example 4, addition of lithium 600 mg per day and Seroquel 100 mg at bedtime) is reported as “further stabilized clinically”.
Consider `COC(=O)[C@H](c1ccccc1)[C@H]1CCCCN1` [extended release dexmethylphenidate, dexmethylphenidate], for which the “MPR test result range” value in series [1] (setting [8]) is listed as “ADHD transition range”. Besides, the “Clinical benefit as reported by patient” value in series [2] (Example 2, combination of dextroamphetamine and extended release dexmethylphenidate, compared with mixed amphetamine salts 40 mg) was “not working as well”.
Regarding `O=C1CCc2ccc(OCCCCN3CCN(c4cccc(Cl)c4Cl)CC3)cc2N1` [aripiperazole], the MPR test range result in series [1] (setting [7]) is listed as “bipolar transition range”. For the same compound, the “Clinical stabilization” value in series [2] is reported as “not fully stabilized”.

These data come from patent US10082498B2, “Methods for treating ADHD and bipolar disorder using a membrane potential ratio test” (PSYCHNOSTICS, LLC., priority 2013, dated 2018).
